This note sets out measurements from patent publication US20040044264A1, “Use of ionic liquids to separate olefins, diolefins and aromatics” (NOVA Chemicals (International) S.A., priority 2002, published 2004).

This data set can be described thus: Hydrocarbon solubility in ionic liquid (volume change of hydrocarbon phase in graduated flask). The method, then: The testing apparatus consisted of a flat-bottomed florence flask with a graduated neck. The flask was charged with 75 mL of bmim^+BF4^−, the level being recorded. A known quantity of C5 hydrocarbon was then added to the flask and the flask was sealed. The overall liquid level and the location of the liquid-liquid interfacial meniscus were recorded. The mixture was then agitated to contact the two liquids and the two phases were allowed to separate. The locations of all meniscuses were then recorded. Agitation and phase separation was then repeated until the liquid levels remained unchanged. The volume change of the hydrocarbon phase corresponds to the quantity of hydrocarbon dissolved in the ionic liquid. The testing was conducted at ambient temperature.
The procedure described in Example 1 was performed instead with ethylcyclohexane, ethylbenzene, and styrene. The ionic liquid used was 1-butyl-3-methylimidazolium tetrafluoroborate.

The mark [1] stands for this setting: in bmim+ BF4- ionic liquid containing 1.69 M AgBF4.
Where [2] appears, read: in bmim+ BF4- ionic liquid containing 1.69 M AgBF4, ambient temperature.

Like-named read-outs stand apart in the source and are kept apart here. Marks after values point to notes of the source that are not given here.

Take `CCc1ccccc1` [Ethylbenzene]: under setting [1], the “Solubility (mol C8/L ionic liquid)” value stood at 7.55 mol C8/L ionic liquid and the “Solubility (mol C8/mol Ag+)” value was 4.47 mol C8/mol Ag+.
As to `CCC1CCCCC1` [Ethylcyclohexane], the “Solubility (mol C8/L ionic liquid)” value worked out at 0.10 mol C8/L ionic liquid and the “Solubility (mol C8/mol Ag+)” value was 0.06 mol C8/mol Ag+.
Regarding `CCC(C)C` [Isopentane], the “Solubility (mol C5/L ionic liquid)” value is reported as 0.044 mol C5/L ionic liquid and the “Solubility (mol C5/mol Ag+)” value is listed as 0.026 mol C5/mol Ag+.
As for `C=CC(=C)C` [Isoprene], under setting [2], the “Solubility (mol C5/L ionic liquid)” value is listed as 1.132 mol C5/L ionic liquid and the “Solubility (mol C5/mol Ag+)” value amounted to 0.670 mol C5/mol Ag+.
Turning to `C=Cc1ccccc1` [Styrene], under setting [1], the “Solubility (mol C8/L ionic liquid)” value was > 7.01* mol C8/L ionic liquid and the “Solubility (mol C8/mol Ag+)” value is recorded as 4.15* mol C8/mol Ag+.
